The nature of data set [1]: Surface charge measurement (Zetasizer Nano ZS). The note with it: mean±SEM, n=3, in mV (unit assumed). Type of data set: physicochemical.
Data set [2] is described as follows: Hydrophobic assay (water/octanol phase transition, absorbance at 400 nm and 671 nm). Type of data set: physicochemical. To be noted: dissolved in DW, octanol added.
Data set [3] can be described thus: Photobleaching of Ce6 fluorescence under PDT laser (671 nm). In kind it is physicochemical. The note with it: 10 minutes PDT laser 671 nm; Ce6 equivalent 2.5 μM in ethanol. How it is done: In this case, each sample (Ce6 equivalent concentration of 2.5 μM) was dissolved in ethanol and irradiated with a PDT laser (MRL-III-671, 671±1 nm, China) for 10 minutes, and then the photobleaching of Ce6 fluorescence (λ excitation/λ emission=400 nm/671 nm) of each sample was measured according to laser irradiation time, and the results are illustrated in FIG. 10.

For data set [4], the system named is Caco-2 cell monolayer. Type of data set: in vitro ADME, human. As for the experimental part:
Specifically, small intestine […] cells (Caco-2) were inoculated onto a Transwell insert with a diameter of 6.5 mm and a pore size of […] (seeding density: 2×10^4 cells/insert; Corning, Inc., Corning, N.Y., USA).
After the Caco-2 were incubated for approximately 2 to 3 weeks in a CO2 incubator, trans epithelial electrical resistance (TEER) was measured using a voltmeter (EVOM^2; World Precision Instruments, Sarasota, Fla., USA) to confirm tight junctions. In this case, the TEER value […] was used for the assay. […] During the treatment, TEER values were measured at each designated time, and the results are illustrated in FIG. 18.
Pretreated-Lf/Ce6-AuNP-Lf was used to examine passive transport excluding lactoferrin receptor (LfR)-mediated transport.
Referring to this, Lf pretreatment (pretreated-Lf) was performed to saturate LfR expressed in the Caco-2 cell monolayer, and two hours after Lf pretreatment (pretreated-Lf), the medium was exchanged with a Ce6-AuNP-Lf-containing medium.

The subject of data set [5] is brain tumor cells (U87MG). The experiment in a line: Uptake into brain tumor cells (confocal, FACS). To be noted: Ce6 equivalent 2.5 μM, 18 hours. In kind it is cell-based, human. As for the experimental part: Next, DAPI mounting medium (Vector Laboratories, Inc., Burlingame, Calif., USA) was used and the intracellular Ce6 fluorescence was observed under a confocal microscope (TCS SP5, Leica, Germany).
Meanwhile, flow cytometry (FACS Calibur™; BD Biosciences, Franklin Lakes, N.J.) was used to quantify the intracellular Ce6 fluorescence. […] After washing three times with PBS, the cells were detached with trypsin/EDTA, centrifuged for 3 minutes at 1000 rpm, and then analyzed with FACS.

Data set [6] relates to brain tumor (U87MG) cells. The experiment in a line: Phototherapy of brain tumor cells: viability, Annexin V/PI apoptosis, DCFH-DA ROS. In kind it is cell-based, human. To be noted: PDT+PTT, 2.5 minutes each. How it is done: Cell viability was measured with an EZ-Cytox kit.
Meanwhile, the intracellular ROS generation by laser irradiation was measured using the fluorescent probe DCFH-DA according to the manufacturer's instructions. Annexin V-DY-634/PI apoptosis was used to evaluate apoptosis. That is, brain tumor (U87MG) cells were suspended in 400 μL binding buffer, and then stained with Annexin V-DY-634 (5 μL) at 2 to 8° C. for 15 minutes. Next, PI (5 μL) was added and the cells were incubated for 5 min. In this case, brain tumor (U87MG) cells were analyzed using FACS.

Substance Chlorin e6 [Ce6] registered a surface charge in data set [1] of −9.4±4.3. The hydrophobicity entry in data set [2] is on record as “hydrophobic”. Further, the “Ce6 fluorescence after PDT laser irradiation (photobleaching)” value in data set [3] was determined as 57.0±5.6%. Also, in data set [4], the “transmittance / amount transported across the barrier” value is listed as “about 47.6%”. For the same substance, the “amount of uptake into the cells (FACS, intracellular Ce6 fluorescence)” value in data set [5] is 43.6±2.2. Besides, the “apoptotic cell population (Annexin-V+/PI+)” value in data set [6] is recorded as 22.0%.

The values above are taken from US20230173098A1, “NANOPARTICLE COMPLEX FOR ORAL ADMINISTRATION AND USES THEREOF” (IUCF-HYU (Industry-University Cooperation Foundation …, priority 2021, published 2023).
